Common to all, as to assay type: cell-based
One series has as its system MDA-MB-231. Put plainly: cells. The following applies: Homo sapiens, read-out: IC50 (nM) MDA-MB-231. The method, then: (§1) MDA-MB-231, OV90, and NCI-N87 cells at defined cell densities (1,500 cells per well, 80 µL volume) were seeded into 96-well plates. The cells were cultured overnight in a constant-temperature incubator (37°C, 5% CO2). Ecteinascidin derivative solutions at a maximum concentration of 2 mM were first prepared in DMSO, and serial 1:4 gradient dilutions were performed. 1 µL of each DMSO-prepared dilution was added to 99 µL of PBS containing 10% FBS per well and mixed thoroughly. The diluted solutions (2 µL of diluted solution and 18 µL of PBS containing 10% FBS per well) were then co-incubated with the cells (37°C, 5% CO2) for five days, after which CellTiter-Glo reagent (40 µL per well) was added, and […] values were measured using an i3x microplate reader.

In a further series the test system is NCI-N87. Put plainly: cells. The settings on record: Homo sapiens, read-out: IC50 (nM) NCI-N87. The method, then: as §1
Another series has as its system OV90. The series can be described thus: cells. The following applies: Homo sapiens, OV-90, 120 h, read-out: IC50 (nM) OV90. The method, then: as §1
Series [1] relates to MDA-MB-231, OV90, and NCI-N87 cells. Put plainly: Tumor cell proliferation inhibition assay of novel ecteinascidin derivatives, summary over the three cell lines. The settings on record: compared with trabectedin and lurbinectedin. The method, then: as §1, with “The” for “MDA-MB-231, OV90, and NCI-N87 cells at defined cell densities (1,500 cells per well, 80 µL volume) were seeded into 96-well plates. The”

Where [2] appears, read: 120 h, MDA-MB-231 cells, five days co-incubation.
Where [3] appears, read: 120 h, NCI-N87 cells, five days co-incubation.
The mark [4] stands for this setting: OV90 cells, five days co-incubation.

Like-named read-outs stand apart in the source and are kept apart here.

With `COc1ccc2[nH]c3c(c2c1)CCN[C@]31CS[C@@H]2c3c(OC(C)=O)c(C)c4c(c3[C@H](COC1=O)N1[C@@H]2[C@H]2c3c(cc(C)c(OC)c3O)C[C@@H]([C@@H]1O)N2C)OCO4` [Lurbinectedin, reference compound], the IC50 – broadly, the concentration that gives 50% inhibition – in the series on MDA-MB-231 (setting [2]) was 1 to 10 nM; in the series on NCI-N87 (setting [3]) it was under 1 nM; in the series on OV90 (setting [4]), 1 to 10 nM.

In the case of `COc1c(C)cc2c(c1O)[C@@H]1[C@@H]3[C@@H]4SC[C@]5(NCCc6cc(N)c(F)cc65)C(=O)OC[C@@H](c5c6c(c(C)c(OC(C)=O)c54)OCO6)N3[C@@H](C#N)[C@H](C2)N1C` [P1], the IC50 in the series with MDA-MB-231 (setting [2]), in the series with NCI-N87 (setting [3]) and in the series on OV90 (setting [4]) was under 1 nM throughout. In series [1], the in-vitro cytotoxic activities result is “superior to or comparable to those of trabectedin and lurbinectedin”.

`COc1c(C)cc2c(c1O)[C@@H]1[C@@H]3[C@@H]4SC[C@]5(NCCc6cc(N)c(N(C)C)cc65)C(=O)OC[C@@H](c5c6c(c(C)c(OC(C)=O)c54)OCO6)N3[C@@H](C#N)[C@H](C2)N1C` [P5]: the IC50 lay in the range of 1 to 10 nM with MDA-MB-231 (MDA-MB-231, 120 h); 1 to 10 nM with NCI-N87 (NCI-N87, 120 h); 1 to 10 nM with OV90.

Take `COc1c(C)cc2c(c1O)[C@@H]1[C@@H]3[C@@H]4SC[C@]5(NC[C@@H](O)c6cc(N)ccc65)C(=O)OC[C@@H](c5c6c(c(C)c(OC(C)=O)c54)OCO6)N3[C@@H](C#N)[C@H](C2)N1C` [P9]: the IC50 with MDA-MB-231 (setting [2]), in the series on NCI-N87 (setting [3]) and in the series with OV90 (setting [4]) was under 1 nM throughout. The in-vitro cytotoxic activities result in series [1] was “superior to or comparable to those of trabectedin and lurbinectedin”.

`COc1c(C)cc2c(c1O)[C@@H]1[C@@H]3[C@@H]4SC[C@]5(NC[C@H](O)c6cc(N)ccc65)C(=O)OC[C@@H](c5c6c(c(C)c(OC(C)=O)c54)OCO6)N3[C@@H](C#N)[C@H](C2)N1C` [P10]: the IC50 in the series on MDA-MB-231 (setting [2]), with NCI-N87 (setting [3]) and in the series with OV90 (setting [4]) was under 1 nM throughout. For the same compound, the in-vitro cytotoxic activities result in series [1] is “superior to or comparable to those of trabectedin and lurbinectedin”.

With `COc1cc2c(cc1N)[C@H](O)CN[C@]21CS[C@@H]2c3c(OC(C)=O)c(C)c4c(c3[C@H](COC1=O)N1[C@@H]2[C@H]2c3c(cc(C)c(OC)c3O)C[C@@H]([C@@H]1C#N)N2C)OCO4` [P12], the IC50 in the series on MDA-MB-231 (setting [2]), with NCI-N87 (setting [3]) and with OV90 (setting [4]) was under 1 nM throughout. Also, in series [1], the in-vitro cytotoxic activities entry is “superior to or comparable to those of trabectedin and lurbinectedin”.

`COc1cc2c(cc1N)[C@@H](O)CN[C@]21CS[C@@H]2c3c(OC(C)=O)c(C)c4c(c3[C@H](COC1=O)N1[C@@H]2[C@H]2c3c(cc(C)c(OC)c3O)C[C@@H]([C@@H]1C#N)N2C)OCO4` [P13]: the IC50 in the series on MDA-MB-231 (setting [2]), in the series on NCI-N87 (setting [3]) and in the series on OV90 (setting [4]) was under 1 nM each time. In series [1], the in-vitro cytotoxic activities result was “superior to or comparable to those of trabectedin and lurbinectedin”.

In the case of `COc1cc2c(cc1N)[C@@H](OS(=O)(=O)O)CN[C@]21CS[C@@H]2c3c(OC(C)=O)c(C)c4c(c3[C@H](COC1=O)N1[C@@H]2[C@H]2c3c(cc(C)c(OC)c3O)C[C@@H]([C@@H]1C#N)N2C)OCO4` [P14], the IC50 with MDA-MB-231 (setting [2]), in the series with NCI-N87 (setting [3]) and in the series with OV90 (setting [4]) was over 200 nM each time.

Consider `COc1cc2c(cc1NC(=O)CO)CCN(C)[C@]21CS[C@@H]2c3c(OC(C)=O)c(C)c4c(c3[C@H](COC1=O)N1[C@@H]2[C@H]2c3c(cc(C)c(OC)c3O)C[C@@H]([C@@H]1C#N)N2C)OCO4` [P90], for which the IC50 with MDA-MB-231 (setting [2]), in the series with NCI-N87 (setting [3]) and with OV90 (setting [4]) was under 1 nM in each case.

Turning to `COc1cc2c(cc1N)[C@H](CC1CC1)CN[C@]21CS[C@@H]2c3c(OC(C)=O)c(C)c4c(c3[C@H](COC1=O)N1[C@@H]2[C@H]2c3c(cc(C)c(OC)c3O)C[C@@H]([C@@H]1C#N)N2C)OCO4` [P261], the IC50 was in the range of 1 to 10 nM with MDA-MB-231 (setting [2]), 10 to 200 nM with NCI-N87 (setting [3]) and 10 to 200 nM with OV90 (setting [4]).

For the compound `COc1cc2c(cc1N)[C@@H](CC1CC1)CN[C@]21CS[C@@H]2c3c(OC(C)=O)c(C)c4c(c3[C@H](COC1=O)N1[C@@H]2[C@H]2c3c(cc(C)c(OC)c3O)C[C@@H]([C@@H]1C#N)N2C)OCO4` [P262], the IC50 with MDA-MB-231 (setting [2]), in the series with NCI-N87 (setting [3]) and with OV90 (setting [4]) was 1 to 10 nM each time.

Turning to `COc1cc2c(cc1O)C(N)CN[C@]21CS[C@@H]2c3c(OC(C)=O)c(C)c4c(c3[C@H](COC1=O)N1[C@@H]2[C@H]2c3c(cc(C)c(OC)c3O)C[C@@H]([C@@H]1C#N)N2C)OCO4` (some centres unmarked) [T2], the IC50 with MDA-MB-231 (setting [2]) lay within 1 to 10 nM; in the series on NCI-N87 (setting [3]), 10 to 200 nM; in the series with OV90 (setting [4]), 10 to 200 nM.

On to `COc1c(C)cc2c(c1O)[C@@H]1[C@@H]3[C@@H]4SC[C@]5(NCCc6cc(NC(=O)[C@H]7C[C@@H](O)C7)c(F)cc65)C(=O)OC[C@@H](c5c6c(c(C)c(OC(C)=O)c54)OCO6)N3[C@@H](C#N)[C@H](C2)N1C` [T5], for which the figures for the IC50 with MDA-MB-231 (setting [2]), with NCI-N87 (setting [3]) and with OV90 (setting [4]) were under 1 nM, 1 to 10 nM and under 1 nM, respectively.

Take `COc1c(C)cc2c(c1O)[C@@H]1[C@@H]3[C@@H]4SC[C@]5(NCCc6c5ccc(N)c6O)C(=O)OC[C@@H](c5c6c(c(C)c(OC(C)=O)c54)OCO6)N3[C@@H](C#N)[C@H](C2)N1C` [T6]: the IC50 in the series on MDA-MB-231 (setting [2]), in the series with NCI-N87 (setting [3]) and in the series on OV90 (setting [4]) was 1 to 10 nM throughout.

For `COc1c(C)cc2c(c1O)[C@@H]1[C@@H]3[C@@H]4SC[C@]5(NCCc6c5ccc(NC(=O)CO)c6O)C(=O)OC[C@@H](c5c6c(c(C)c(OC(C)=O)c54)OCO6)N3[C@@H](C#N)[C@H](C2)N1C` [T7], the IC50 in the series on MDA-MB-231 (setting [2]), in the series on NCI-N87 (setting [3]) and with OV90 (setting [4]) was 1 to 10 nM in each case.

Regarding `COc1c(C)cc2c(c1O)[C@@H]1[C@@H]3[C@@H]4SC[C@]5(NCCc6cc(N)c(O)cc65)C(=O)OC[C@@H](c5c6c(c(C)c(OC(C)=O)c54)OCO6)N3[C@@H](C#N)[C@H](C2)N1C` [T8], the IC50 in the series with MDA-MB-231 (setting [2]), in the series with NCI-N87 (setting [3]) and in the series with OV90 (setting [4]) was 1 to 10 nM each time.

For `COc1c(C)cc2c(c1O)[C@@H]1[C@@H]3[C@@H]4SC[C@]5(NCCc6cc(NC(=O)CO)c(O)cc65)C(=O)OC[C@@H](c5c6c(c(C)c(OC(C)=O)c54)OCO6)N3[C@@H](C#N)[C@H](C2)N1C` [T9], the IC50 in the series on MDA-MB-231 (setting [2]), in the series on NCI-N87 (setting [3]) and in the series with OV90 (setting [4]) was 1 to 10 nM in each case.

In the case of `COc1cc2c(cc1NC(=O)CO)C1(CC1)CN[C@]21CS[C@@H]2c3c(OC(C)=O)c(C)c4c(c3[C@H](COC1=O)N1[C@@H]2[C@H]2c3c(cc(C)c(OC)c3O)C[C@@H]([C@@H]1C#N)N2C)OCO4` [T11], the IC50 in the series on MDA-MB-231 (setting [2]), with NCI-N87 (setting [3]) and in the series on OV90 (setting [4]) was under 1 nM throughout.

As to `COc1c(C)cc2c(c1O)[C@@H]1[C@@H]3[C@@H]4SC[C@]5(NCCc6cc(N)cc(O)c65)C(=O)OC[C@@H](c5c6c(c(C)c(OC(C)=O)c54)OCO6)N3[C@@H](C#N)[C@H](C2)N1C` [T12], the IC50 in the series on MDA-MB-231 (setting [2]), in the series on NCI-N87 (setting [3]) and in the series with OV90 (setting [4]) was 1 to 10 nM throughout.

On to `COc1c(C)cc2c(c1O)[C@@H]1[C@@H]3[C@@H]4SC[C@]5(NCCc6cc(NC(=O)CO)cc(O)c65)C(=O)OC[C@@H](c5c6c(c(C)c(OC(C)=O)c54)OCO6)N3[C@@H](C#N)[C@H](C2)N1C` [T13], for which the IC50 with MDA-MB-231 (setting [2]), in the series with NCI-N87 (setting [3]) and with OV90 (setting [4]) was 10 to 200 nM throughout.

`COc1c(C)cc2c(c1O)[C@@H]1[C@@H]3[C@@H]4SC[C@]5(NCCc6cc(N)c(OC)c(OC)c65)C(=O)OC[C@@H](c5c6c(c(C)c(OC(C)=O)c54)OCO6)N3[C@@H](C#N)[C@H](C2)N1C` [T14]: the results for the IC50 in the series with MDA-MB-231 (setting [2]), in the series on NCI-N87 (setting [3]) and in the series with OV90 (setting [4]) were 1 to 10 nM, 10 to 200 nM and 10 to 200 nM, respectively.

On to `COc1c(C)cc2c(c1O)[C@@H]1[C@@H]3[C@@H]4SC[C@]5(NCCc6cc(NC(=O)CO)c(OC)c(OC)c65)C(=O)OC[C@@H](c5c6c(c(C)c(OC(C)=O)c54)OCO6)N3[C@@H](C#N)[C@H](C2)N1C` [T15], for which the IC50 with MDA-MB-231 (setting [2]), in the series on NCI-N87 (setting [3]) and in the series on OV90 (setting [4]) was 10 to 200 nM throughout.

Regarding `CNc1cc2c(cc1OC)[C@@]1(CS[C@@H]3c4c(OC(C)=O)c(C)c5c(c4[C@H](COC1=O)N1[C@@H]3[C@H]3c4c(cc(C)c(OC)c4O)C[C@@H]([C@@H]1C#N)N3C)OCO5)NCC2` [T16], the IC50 in the series with MDA-MB-231 (setting [2]) is 1 to 10 nM; in the series on NCI-N87 (setting [3]) it was under 1 nM; in the series with OV90 (setting [4]), 1 to 10 nM.

`COc1c(C)cc2c(c1O)[C@@H]1[C@@H]3[C@@H]4SC[C@]5(NCC(C)(C)c6c5ccc(N)c6OC)C(=O)OC[C@@H](c5c6c(c(C)c(OC(C)=O)c54)OCO6)N3[C@@H](C#N)[C@H](C2)N1C` [T18]: the IC50 in the series with MDA-MB-231 (setting [2]) is under 1 nM; in the series on NCI-N87 (setting [3]) it was under 1 nM; in the series with OV90 (setting [4]) it was 1 to 10 nM.

Values taken from EP4778932A1 (priority 2023, dated 2025).
